Legend:
[1] = logP determination (PhysData, logP^1); conditions: for logP^1: stated in preparation examples; for PhysData (logP (HCOOH)): HPLC gradient method, acetonitrile/0.1% HCOOH, EEC-Directive 79/831, Annex V.A8
Myzus persicae [2] = assay: Myzus persicae-test (Spray application); type: in vivo; conditions: application rate of 500 g/ha; spray on Chinese cabbage leaf-disks, all instars
Procedure: Myzus persicae-test (Spray application)
(§1) To produce a suitable preparation of active compound, 1 part by weight of active compound is mixed with the stated amount of solvent and emulsifier, and the concentrate is diluted with emulsifier-containing water to the desired concentration.
Chinese cabbage (Brassica pekinensis) leaf-disks infected with all instars of the green peach aphid (Myzus persicae), are sprayed with a preparation of the active ingredient at the desired concentration.
(§2) After the specified period of time, mortality in % is determined. 100 % means that all aphids have been killed; o % means that none of the […] have been killed.

Phaedon cochleariae = assay: Phaedon-test (spray application); type: in vivo; conditions: application rate of 500 g/ha; spray on Chinese cabbage leaf-disks, larvae
Procedure: Phaedon-test (spray application)
as §1
Chinese cabage (Brassica pekinesis) leafs-disks are treated by being sprayed with the preparation of the active compound of the desired concentration nd are, after drying, infested with mustard beetle larvae (Phaedon cochleariae).
(§3) After the specified period of time, mortality in % is determined. 100 % means that all spider mites have been killed; o % means that none of the […] have been killed.

Myzus persicae [3] = assay: Myzus-test (oral); type: in vivo; conditions: oral (suction)
Procedure: as §1
Hollow-ware are located with all instars of the green peach aphid (Myzus persicae). The treatement is carried out by suction of the preparation of active compound of the desired concentration.
as §2

Tetranychus urticae = assay: Tetranychus-test, OP-resistant (spray application); type: in vivo; conditions: spray on French bean
Procedure: Tetranychus-test, OP-resistant (spray application)
as §1
French bean (Phaseolus vulgaris) which are heavily infested with all stages of the two spotted spidermite (Tetranychus urticae), are sprayed with a preparation of the active ingredient at the desired concentration.
as §3

Boophilus microplus = assay: Boophilus microplus-test (injection); type: in vivo; conditions: application rate of 20 µg/animal; injection in the abdomen
Procedure: Boophilus microplus-test (injektion)
as §1
The solution of the active compound is injected in the abdomen (Boophilus microplus); the animals are transferred into a cup and stayed in a rooming with an air condition.
After the specified period of time, the efficiany mortality in % is determined. 100 % means that no tick has lay fertile eggs.

[4] = Table I-1, cells marked (A) are 1H-NMR, not logP

Row | Compound | PhysData (logP^1) [1, 4] | activity (mortality in %) (Myzus persicae [2]) | chromatographic logP (physchem) | also measured
1 | S=C(NCc1ccccc1)N1CCOC1=NC1Cc2ccccc2C1 [1-34] | 5.2 | – | – | –
2 | CCCNC(=S)N1CCOC1=NC1Cc2ccccc2C1 [1-18] | 3.94 | ≥ 80% | – | –
3 | S=C(NCc1cccc(Cl)c1)N1CCOC1=NC1Cc2ccccc2C1 [1-37] | – | ≥ 80% | 4.9 | –
4 | CCOC(=O)CC(C)NC(=S)N1CCOC1=NC1Cc2ccccc2C1 (centres unmarked) [1-23] | 4.0 | – | – | activity (mortality in %) (Phaedon cochleariae): ≥ 80%
5 | Fc1ccc2c(c1)CC(N=C1NCCO1)C2 (centres unmarked) [1-64] | 0.73 | – | – | –
6 | CC(NC(=S)N1CCOC1=NC1Cc2ccccc2C1)c1ccccc1 (centres unmarked) [1-35] | 4.4 | – | – | –
7 | FC(F)(F)CNC(=S)N1CCSC1=NC1Cc2ccccc2C1 [2-6] | – | – | – | PhysData (logP^1) ([1]; Table I-2): 4.80; logP^1 [1]: 4.8
8 | COC(=O)CCCNC(=S)N1CCOC1=NC1Cc2ccccc2C1 [1-24] | 3.6 | – | – | –
9 | CC(NC(=S)N1CCOC1=NC1Cc2ccccc2C1)c1cccc(Cl)c1 (centres unmarked) [1-45] | – | ≥ 80% | 5.3 | –
10 | CNC(=S)N1CCSC1=NC1Cc2ccccc2C1 [2-2] | – | – | – | PhysData (logP^1) ([1]; Table I-2): 4.05
11 | COC(=O)CNC(=S)N1CCOC1=NC1Cc2ccccc2C1 [1-8] | 3.20 | – | – | activity (mortality in %) (Myzus persicae [3]; application rate of 20 ppm): ≥ 80%
12 | Fc1ccc(CNC(=S)N2CCOC2=NC2Cc3ccccc3C2)cc1 [1-47] | – | – | 4.4 | –
13 | S=C(NCc1ccc(Cl)cc1Cl)N1CCOC1=NC1Cc2ccccc2C1 [1-49] | – | – | 5.7 | –
14 | CC(NC(=S)N1CCOC1=NC1Cc2ccccc2C1)c1ccc(Cl)cc1 (centres unmarked) [1-43] | – | – | 5.3 | –
15 | Cc1ccc(CNC(=S)N2CCOC2=NC2Cc3ccccc3C2)cc1 [1-46] | – | – | 4.8 | –
16 | COC(CNC(=S)N1CCOC1=NC1Cc2ccccc2C1)OC [1-12] | – | ≥ 80% | 3.6 | activity (mortality in %) (Phaedon cochleariae): ≥ 80%
17 | S=C(NCC1CCCO1)N1CCOC1=NC1Cc2ccccc2C1 (centres unmarked) [1-28] | – | ≥ 80% | 3.6 | –
18 | CCNC(=S)N1CCOC1=NC1Cc2ccccc2C1 [1-5] | 3.46 | ≥ 80% | – | –
19 | COCCNC(=S)N1CCOC1=NC1Cc2ccccc2C1 [1-7] | – | ≥ 80% | 3.25 | activity (mortality in %) (Tetranychus urticae; application rate of 500 g/ha): ≥ 80%; efficiency (100 % means that no tick has lay fertile eggs) (Boophilus microplus): ≥ 80%

Row | Compound | PhysData (logP^1) [1, 4] | activity (mortality in %) (Myzus persicae [2]) | chromatographic logP (physchem) | also measured
20 | FC(F)(F)CNC(=S)N1CCOC1=NC1Cc2ccccc2C1 [1-6] | 4.28 | ≥ 80% | – | –
21 | CCOC(=O)CNC(=S)N1CCSC1=NC1Cc2ccccc2C1 [2-8] | – | – | – | PhysData (logP^1) ([1]; Table I-2): 4.41
22 | FC(F)(F)C1CCCC(NC(=S)N2CCOC2=NC2Cc3ccccc3C2)C1 (centres unmarked) [1-33] | – | – | 4.7 | –
23 | S=C(NCc1ccc2c(c1)OCO2)N1CCOC1=NC1Cc2ccccc2C1 [1-39] | – | ≥ 80% | 4.1 | –
24 | COCCNC(=S)N1CCSC1=NC1Cc2ccccc2C1 [2-7] | – | – | – | PhysData (logP^1) ([1]; Table I-2): 4.11
25 | CC(C)CNC(=S)N1CCOC1=NC1Cc2ccccc2C1 [1-21] | 4.51 | ≥ 80% | – | –
26 | S=C(NCCc1cccc(Cl)c1)N1CCOC1=NC1Cc2ccccc2C1 [1-120] | – | – | 5.1 | –
27 | COc1ccc(CNC(=S)N2CCOC2=NC2Cc3ccccc3C2)cc1OC [1-48] | – | – | 3.7 | –
28 | CCC(NC(=S)N1CCOC1=NC1Cc2ccccc2C1)C(=O)OC (centres unmarked) [1-27] | 4.0 | ≥ 80% | – | –
29 | CCCCNC(=S)N1CCOC1=NC1Cc2ccccc2C1 [1-19] | 4.46 | ≥ 80% | – | –
30 | S=C(NCCc1ccc(Cl)cc1)N1CCOC1=NC1Cc2ccccc2C1 [1-41] | – | – | 5.1 | –
31 | S=C(NC1CC1)N1CCOC1=NC1Cc2ccccc2C1 [1-31] | 3.5 | – | – | –
32 | S=C(NCc1ccc(Cl)cc1)N1CCOC1=NC1Cc2ccccc2C1 [1-36] | – | ≥ 80% | 4.9 | –
33 | O=C(NC(=S)N1CCOC1=NC1Cc2ccccc2C1)c1ccccc1 [1-11] | 3.11 | – | – | –
34 | S=C(NCc1ccccc1Cl)N1CCOC1=NC1Cc2ccccc2C1 [1-38] | – | – | 4.9 | –
35 | COCCNC(=S)N1CCNC1=NC1Cc2ccccc2C1 [3-7] | – | – | – | PhysData (logP (HCOOH)) ([1]; Table I-3): 1.46; logP^1 [1]: 1.46
36 | CNC(=S)N1CCOC1=NC1Cc2ccccc2C1 [1-2] | 2.36 | ≥ 80% | – | activity (mortality in %) (Myzus persicae [3]; application rate of 20 ppm): ≥ 80%; logP^1 [1]: 2.36
37 | FC(F)(F)C1CCC(NC(=S)N2CCOC2=NC2Cc3ccccc3C2)CC1 (centres unmarked) [1-29] | – | – | 5.1 | –
38 | C=CCNC(=S)N1CCOC1=NC1Cc2ccccc2C1 [1-17] | 3.75 | ≥ 80% | – | –

Row | Compound | PhysData (logP^1) [1, 4] | activity (mortality in %) (Myzus persicae [2]) | chromatographic logP (physchem) | also measured
39 | CC(NC(=S)N1CCOC1=NC1Cc2ccccc2C1)c1ccccc1Cl (centres unmarked) [1-44] | – | – | 5.2 | –
40 | CC(C)NC(=S)N1CCOC1=NC1Cc2ccccc2C1 [1-30] | 4.0 | ≥ 80% | – | –
41 | S=C(NCCc1ccccc1)N1CCOC1=NC1Cc2ccccc2C1 [1-40] | 4.6 | – | – | –
42 | c1ccc2c(c1)CC(NC1=NCCS1)C2 [2-1, 2-[2-(2,3-dihydro-1H-inden)-amino]-4,5-dihydrothiazole] | – | – | – | PhysData (logP^1) ([1]; Table I-2): 0.66
43 | CC(NC(=S)N1CCOC1=NC1Cc2ccccc2C1)C(F)(F)F (centres unmarked) [1-20] | 4.62 | ≥ 80% | – | –
44 | S=C(NCc1cccnc1)N1CCOC1=NC1Cc2ccccc2C1 [1-42] | – | ≥ 80% | 2 | –
45 | CCOC(=O)C(C)NC(=S)N1CCOC1=NC1Cc2ccccc2C1 (centres unmarked) [1-26] | 4.2 | ≥ 80% | – | –
46 | CCC(CC)NC(=S)N1CCOC1=NC1Cc2ccccc2C1 [1-14] | 4.90 | ≥ 80% | – | –
47 | COC(=O)CCNC(=S)N1CCOC1=NC1Cc2ccccc2C1 [1-22] | 3.2 | ≥ 80% | – | –
48 | S=C(Nc1ccccn1)N1CCOC1=NC1Cc2ccccc2C1 [1-50] | – | ≥ 80% | 1.6 | activity (mortality in %) (Phaedon cochleariae): ≥ 80%
49 | O=C(NCCCl)NC1Cc2ccccc2C1 [4-1] | – | ≥ 80% | – | activity (mortality in %) (Myzus persicae [3]; application rate of 100 ppm): ≥ 80%; PhysData (logP (HCOOH)) ([1]; Table 1-4): 1.92
50 | S=C(NC1CCCC1)N1CCOC1=NC1Cc2ccccc2C1 [1-32] | – | ≥ 80% | 4.74 | –
51 | COC(=O)C(NC(=S)N1CCOC1=NC1Cc2ccccc2C1)C(C)C (centres unmarked) [1-25] | 4.4 | ≥ 80% | – | –
52 | c1ccc2c(c1)CC(N=C1NCCO1)C2 [1-1, 2-[2-(2,3-dihydro-1H-inden)-amino]-4,5-dihydrooxazole] | 0.81 | ≥ 80% | – | activity (mortality in %) (Myzus persicae [3]; application rate of 20 ppm): ≥ 80%; activity (mortality in %) (Tetranychus urticae; application rate of 100 g/ha): ≥ 80%
53 | CC(=O)NC(=S)N1CCOC1=NC1Cc2ccccc2C1 [1-10] | 2.53 | – | – | –
54 | S=C(NCC1CC1)N1CCOC1=NC1Cc2ccccc2C1 [1-16] | 3.24 | ≥ 80% | – | –
55 | c1ccc2c(c1)CC(NC1=NCCN1)C2 [3-1] | – | – | – | PhysData (logP (HCOOH)) ([1]; Table I-3): 0.52
56 | CCCC(C)NC(=S)N1CCOC1=NC1Cc2ccccc2C1 (centres unmarked) [1-13] | – | ≥ 80% | 5 | activity (mortality in %) (Phaedon cochleariae): ≥ 80%

From patent EP1988080A1, “Insecticidal substituted 2-aminoindanes” (Bayer CropScience AG, priority 2007, dated 2008)
